This note sets out measurements from patent publication US20030096311A1, “Screening method for compounds” (priority 2000, published 2003).

Each structure is given as a SMILES string.

The target of test [1] is T1, IFN-γ (Homo sapiens, UniProt P01579).
T1 sequence (P01579 24-161 limits assumed): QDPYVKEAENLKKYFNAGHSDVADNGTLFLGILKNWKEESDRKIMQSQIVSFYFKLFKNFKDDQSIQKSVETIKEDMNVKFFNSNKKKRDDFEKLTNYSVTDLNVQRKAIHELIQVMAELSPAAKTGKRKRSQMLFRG
Put plainly: ELISA detection of IFN-γ after overnight cell-free incubation with BP. To be noted: overnight with BP 500 μg/ml. It counts as binding. How it is done: The generation of PBMC supernatants and RNA used for this method were prepared as follows. PBMC ([…]) were incubated in RPMI-1640 medium containing TCH (ICN) with or without PHA (Sigma, 2.5 μg/ml). At each time point, samples were centrifuged for 5 min at 400 g, the supernatants collected and analyzed of IFN-γ by ELISA (IDS, Boldon, UK).
Purified recombinant IFN-γ or cell-free supernatants from stimulated PBMC were incubated overnight with BP (500 μg/ml), then assayed by ELISA, Supernatant 1, PBMC stimulated for 20 hours with IL-2; supernatant 2, PBMC stimulated for 43 hours with IL-2; supernatant 3, PBMC stimulated for 43 hours with PHA.
For orientation: ELISA stands for enzyme-linked immunosorbent assay.

For another test, the target named is T2, IL-4 (Homo sapiens, UniProt P05112).
T2 sequence (P05112 25-153): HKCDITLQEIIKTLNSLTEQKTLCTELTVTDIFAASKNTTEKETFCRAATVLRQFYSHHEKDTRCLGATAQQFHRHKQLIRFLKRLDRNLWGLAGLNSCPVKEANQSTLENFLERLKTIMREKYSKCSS
Put plainly: Western blot with anti-BP antibody: comparative study with IL-4. The test is classed as binding. To be noted: IL-4 in place of IFN-γ; compared with IFN-γ. How it is done:
(§1) SDS-PAGE and Western Blotting techniques using for this method were performed as follows. Carrier-free recombinant human IFN-γ (PeproTech, London, UK) was made to 10 μg/ml and incubated overnight with or without BP (final concentrations 25, 5, 0.5 mg/ml). At the end of the incubation period, 5×loading buffer was added and 20 μl of each sample loaded onto SDS-polyacrylamide gels. The gels were then analyzed by Western blotting, using a rabbit polyclonal anti-BP antibody. A comparative study was conducted using IL-4 in place of IFN-γ.
(§2) Carrier-free recombinant human IFN-γ (PeproTech, London, UK) were made to 10 μg/ml and incubated overnight with or without Benzyl Penicillin (BP) (final concentrations: 25, 5, 0.5 mg/ml). At the end of the incubation period, 5×loading buffer was added and 20 μl of each sample loaded onto SDS-polyacrylamide gels. For all samples, aliquots were then analyzed by Western blotting, using a rabbit polyclonal anti-BP antibody. A comparative study was conducted using IL-4 in place of IFN-γ.
In general terms: In western blotting, separated proteins are transferred to a membrane and probed.

Test [2] addresses T3, IFN-γ (Homo sapiens, UniProt P01579).
T3 sequence (P01579 24-166): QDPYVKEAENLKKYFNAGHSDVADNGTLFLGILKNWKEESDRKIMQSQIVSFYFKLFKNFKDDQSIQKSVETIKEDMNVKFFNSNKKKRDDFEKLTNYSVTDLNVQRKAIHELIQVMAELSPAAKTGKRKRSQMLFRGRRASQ
The test is described as follows: IFN-γ induction of MHC class II DR on peripheral blood monocytes after BP pre-incubation. The test is classed as cell-based. To be noted: IFN-γ 1 μg/ml pre-incubated overnight with various concentrations of BP; HMC-1 pulsed, co-cultured with PBM. How it is done:
Referring now to FIG. 2, there is shown a graph illustrating the results of a determination of whether the effect of conjugation or interaction of the substance, BP, with IFN-γ has an effect on IFN-γ activity. In summary, IFN-γ was tested for induction of MHC class II DR on human peripheral blood monocytes (PBM) as follows.
IFN-γ (1 μg/ml) was incubated overnight with various concentrations of BP. HMC-1 cells were pulsed with or without IFN-γ (10 ng/ml), BP, or BP-treated IFN-γ, for 30 min and washed 3 times in PBS. The cells were resuspended in IFS and co-cultured (2×10^5) overnight with PBM (2×10^5) in a total volume of 200 μl in polypropylene tubes (Falcon). Six tubes were set up for each HMC-1 treatment.

In test [3] the target is T3, IFN-γ. Put plainly: IFN-γ mediated up-regulation of MCP-1 mRNA in A549 cells (RNase protection). The test is classed as cell-based.
The target of test [4] is T3, IFN-γ. Put plainly: Western blot with anti-BP antibody: conjugation of BP to IFN-γ. It counts as binding. Set-up: purchased PeproTech, London, UK. The note with it: IFN-γ 10 μg/ml overnight with BP 25, 5, 0.5 mg/ml. How it is done:
as §1
Referring now to FIG. 1, there is shown a Western blot illustrating the conjugation of BP to or interaction of BP to IFN-γ. FIG. 1 illustrates a method by which conjugation or interaction of a substance with a cytokine, namely IFN-γ, can be determined.
as §2

As for `CC1(C)S[C@@H]2[C@H](NC(=O)Cc3ccccc3)C(=O)N2[C@H]1C(=O)O` [BP, benzyl penicillin], the “IFN-γ (pg/ml) detected with BP” value on IFN-γ [1] (PBMC supernatant 1 (IL-2, 20 hours), without BP 152) was determined as 0 pg/mL; at IFN-γ [1] (PBMC supernatant 2 (IL-2, 43 hours), without BP 389), 0 pg/mL; at IFN-γ [1] (PBMC supernatant 3 (PHA, 43 hours), without BP >400) it was 92 pg/mL; at IFN-γ [1] (recombinant IFN-γ 200 pg/ml, without BP 192), 13 pg/mL; on IFN-γ [1] (recombinant IFN-γ 1000 pg/ml, without BP 1015) it was 70 pg/mL. The “conjugation to IL-4” value at IL-4 is recorded as “conjugates to IL-4, though to a substantially lesser degree than to IFN-γ”. Further, on IFN-γ [2], the “IFN-γ bioactivity (increase in DR median fluorescence on PBM)” value is reported as “reduced its bioactivity in a concentration dependent manner”. Besides, the “induction of MCP-1 mRNA by IFN-γ” value is “less marked inhibiting effect” at IFN-γ [3] (BP mixed with IFN-γ immediately before addition to A549 cells, lanes 10-12) and “inhibited induction of MCP-1 mRNA” on IFN-γ [3] (IFN-γ pre-incubated overnight with BP (20 or 10 mg/ml), A549 cells, 2 hours, lanes 4-6). The “conjugation to IFN-γ” value on IFN-γ [4] is reported as “conjugates to IFN-γ”.
